# Results as given in patent US8309790B2, “Animal models for demyelination disorders” (University of Chicago, priority 2005, dated 2012).
# Test system: cultured rat oligodendrocytes
# Test: IFN-γ treatment of cultured rat oligodendrocytes (apoptosis, ER stress markers)
# Format: cell-based
# Protocol: To test whether apoptosis of oligodendrocytes that is induced by INF-γ affects ER stress, the effect on the morphology, the degree of apoptosis and the expression of ER markers was studied in a culture of oligodendrocyte precursor cells (OPC). Oligodendrocyte progenitors were cultured from neonatal rat brains (Baerwald, et al. (1998) J. Neurosci. Res. 52: 230-239). A mixed glial culture was grown in flasks in medium containing 10% fetal bovine serum (FBS), and when the astrocyte layer became confluent (10-14 days), oligodendrocyte progenitors were separated from astrocytes and microglia using an orbital shaker. Cells, greater than 95% of which were A2B5 positive, GFAP negative and CD11b negative, were cultured in 0.5% FBS containing medium, which also contained PDGF (10 ng/ml) and FGF (5 ng/ml) (both from R&D Systems, Minneapolis, Minn.). Then cells were switched to 0.5% FBS medium without PDGF and FGF for differentiation. After 5 days in the differentiating medium, approximately 40% of cells were positive for myelin protein 2′3′-cyclic nucleotide 3′-phosphodiestaerase (CNP). 70 U/ml recombinant rat IFN-γ (Calbiochem, La Jolla, Calif.) was added to the cells that had been allowed to differentiation for 5 days. After 5 d in the differentiating medium, about 40% of the cells were CNP positive. 70 U/ml of recombinant rat INF-γ (Calbiochem) was added to the cells that had been allowed to differentiate for 5d. To examine the oligodendroglial response to general ER stress-inducing agents, progenitor cells that had been cultured in differentiation medium for 5 or 7 days were treated with 2 μg/ml of tunicamycin (Sigma Aldrich) for 6 hours.
# The level of apoptosis of the OPC cells was determined by double staining CNP (1:200; Stemberger Monoclonals, Lutherville, Md.) and TUNEL using the ApopTag Kit (Serologicals Corp., Norcross, […].) and following the manufacturer's instructions. Apoptosis was also evaluated by measuring the activity of caspase-3 in oligodendrocyte lysates using the Fluorimetric Caspase 3 Assay Kit (Sigma, St. Louis, Mo.), according to the manufacturer's instructions.
# To determine whether INF-γ affects ER function, the RNA expression of ER markers binding immunoglobulin protein (BIP), CAAT enhancer binding protein homologous protein (CHOP), and caspase 12 was determined using real time PCR. RNA was isolated from cultured cells and mice brain using Trizol reagent (Invitrogen, Carlsbad, Calif.) and treated with DNAaseI (Invitrogen) to eliminate genomic DNA. Reverse transcription was performed using Superscript First Strand Synthesis System for RT-PCR kit (Invitrogen). Real-time PCR was performed with iQ Supermix (Bio-Rad, Hercules, Calif.) on a Bio-Rad iQ real-time PCR detection system (Bio-Rad). The following primers and probes (Integrated DNA Technologies Inc., Coralville, Iowa) for real-time PCR were used: mouse CHOP sense primer […] (SEQ ID NO: 34); mouse CHOP antisense primer […] (SEQ ID NO: 35); CHOP probe […] (SEQ ID NO: 36); mouse BIP sense primer […] (SEQ ID NO: 31); mouse BIP antisense primer […] (SEQ ID NO: 32); BIP probe […] (SEQ ID NO: 33); mouse caspase 12 sense primer […] (SEQ ID NO: 37); and mouse caspase antisense primer […] (SEQ ID NO: 38).
# To determine the effect of INF-γ on the level of phosphorylated eIF-2α and caspase 12 proteins, western blot analysis was performed using the following antibodies anti-eIF-2α (1:500; Santa Cruz), anti-p-eIF-2α (1:1000, Cell signaling Technology), anti-caspase-12 (1:500; Santa Cruz) and anti-actin (1:1000; Sigma, St Louis, Mo.), and according to the following protocol. […]
substance,measurement,setting,value
interferon-γ [IFN-γ],caspase-3 activity in the cell lysates,70 U/ml IFN-γ,markedly increased
same,"apoptosis, TUNEL and CNP double labeling",70 U/ml IFN-γ for 48 h,induced apoptosis in a significant number of oligodendrocytes
same,cell morphology,"70 U/ml IFN-γ for 48 h, cells differentiated 5 days",abnormal morphological changes
same,level of phosphorylated eIF-2α (p-eIF-2α),"70 U/ml IFN-γ, Western blot",significantly elevated
same,caspase-12 expression,"70 U/ml IFN-γ, real-time PCR",induction of caspase-12 was observed
same,levels of mRNA encoding BIP/GRP78 and CHOP/GADD153,"70 U/ml IFN-γ, real-time PCR",2 to 3 times
same,level of the active fragment of caspase-12,"after 48 h of IFN-γ treatment, Western blot",strongly elevated
